Starred links: 1 amine or outer side, 2 acyl side, 3 side chain; linkers in the order of their positions; H or OH if unused. Non-standard residues stand in square brackets, D forms with d. Residues, ends and D or L forms follow the SMILES beside them. Groups on a side chain read outwards from the residue. *: point of attachment. Isobutyryl(2-(3-CN-5-F-Ph)) = CC(C)(C(=O)*)c1cc(F)cc(C#N)c1; C20 diacid = O=C(O)CCCCCCCCCCCCCCCCCCC(=O)*; γGlu = O=C(O)[C@H](CCC(=O)[*:2])N[*:1]; AEEA = NCCOCCOCC(=O)O; Aib = CC(C)(N)C(=O)O; βAla = NCCC(=O)O
Columns and labels:
[1] = biological target: T1, human GIPR (Homo sapiens, UniProt P48546); assay: β-arrestin-2 recruitment (NanoBiT), HEK293, human GIPR; assay type: cell-based; set-up: expressed in transfected cells; host or cells: HEK293 (stably or transiently transfected); details: HEK293, read-out: β-arrestin-2 % Emax
T1 sequence (P48546 22-466): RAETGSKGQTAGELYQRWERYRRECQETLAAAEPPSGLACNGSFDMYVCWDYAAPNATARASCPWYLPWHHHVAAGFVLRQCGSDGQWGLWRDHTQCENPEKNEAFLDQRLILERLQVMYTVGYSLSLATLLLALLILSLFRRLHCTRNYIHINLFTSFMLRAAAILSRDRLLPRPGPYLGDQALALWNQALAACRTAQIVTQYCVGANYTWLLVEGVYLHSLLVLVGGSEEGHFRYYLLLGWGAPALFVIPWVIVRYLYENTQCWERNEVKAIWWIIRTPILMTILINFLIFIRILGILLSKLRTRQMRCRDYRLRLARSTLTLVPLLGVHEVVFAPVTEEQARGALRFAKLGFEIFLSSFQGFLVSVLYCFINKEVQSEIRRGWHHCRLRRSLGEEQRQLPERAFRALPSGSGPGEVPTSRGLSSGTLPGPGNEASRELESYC
Method: (§1) β-arrestin recruitment was measured using Promega's NanoBiT technology and Nano-Glo® Live Cell Substrate in HEK293 cells. β-arrestin-2 recruitment was measured using Promega's NanoBiT technology and Nano-Glo® Live Cell Substrate (catalog number N2012), which uses the NanoLuc luciferase split into two subunits called LgBiT and SmBiT. HEK293 cells were either stably or transiently transfected with equal amounts of DNA plasmids expressing the fusion proteins human GLP-1R-LgBiT or GIPR-LgBiT and SmBiT-(human)-β-arrestin-2; similar methods were used for mouse GLP-1R, GIPR, and β-arrestin-2. […] The following day, the media was removed and replaced with 10 μL of a 1:100 dilution of Nano-Glo® Live Cell Substrate with NanoBiT buffer and OptiMem and equilibrated to room temperature for ten minutes covered. Background luminescence was measured before adding 100 nL of compound dilutions (made in a 1:1 ratio in DMSO). Compounds were transferred using an ECHO Acoustic Liquid Handler (Beckman Coulter) and luminescence was measured at 1.5-minute intervals for 15 minutes using an EnVision Multimode Plate Reader (PerkinElmer; Waltham, MA).
(§2) Each dilution series was normalized to the adjacent high (100%) and low (0%) wells on the plate. […]
(§3) and the Hillslope was constrained to 1. […] For NanoBiT assays, a single time point during the 30-minute activity measurements was selected for maximum luminescence response. […]

[2] = Phase 1 SAD: pharmacokinetics; assay type: in vivo; details: human, serum; SAD Cohort 4 (6.0 mg) single SC dose; read-out: Vz/F (mean)
Description: PK parameters were also summarized using descriptive statistics (number of participants, mean, geometric mean, standard deviation, coefficient of variation, median, minimum, and maximum). In the SAD portion, the power model was used to assess dose proportionality.

[3] = biological target: T2, human GLP-1R (Homo sapiens, UniProt P43220); assay: cAMP accumulation (HitHunter), CHO-K1 cells expressing SNAP-human GLP-1R; assay type: cell-based; set-up: expressed in transfected cells
T2 sequence (P43220 24-463): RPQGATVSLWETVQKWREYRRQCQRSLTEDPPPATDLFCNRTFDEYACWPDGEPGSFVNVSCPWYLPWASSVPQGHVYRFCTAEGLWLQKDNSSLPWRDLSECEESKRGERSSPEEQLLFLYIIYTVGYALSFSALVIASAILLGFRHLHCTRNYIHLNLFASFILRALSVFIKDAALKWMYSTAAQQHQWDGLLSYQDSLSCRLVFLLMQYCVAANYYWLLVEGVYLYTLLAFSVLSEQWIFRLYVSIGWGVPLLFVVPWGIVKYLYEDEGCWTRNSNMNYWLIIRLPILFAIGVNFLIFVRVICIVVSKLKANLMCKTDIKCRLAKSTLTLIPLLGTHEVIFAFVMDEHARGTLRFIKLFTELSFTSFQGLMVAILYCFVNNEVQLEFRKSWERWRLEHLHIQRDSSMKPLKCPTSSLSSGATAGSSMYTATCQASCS
Method: (§4) cAMP production was measured using the HitHunter® cAMP Assay for Small Molecules kit in mammalian cell lines overexpressing either GLP-1R or GIPR. […] A total of 10,000 cells in 5 μL of media were added to each well of a 384-well, low-volume assay plate. For mouse receptor cAMP assays, either U2OS cells stably expressing mouse GLP-1R (DiscoverX 95-0179C3) or CHO-K1 cells stably expressing mouse GIPR (DiscoverX 95-0154C2) were used. Twenty-four hours before the assay, 5000-10,000 cells per well were plated in 384-well, low-volume tissue culture-treated plates in Assay Complete Cell Plating reagent 2 (murine GIPR cells) or 5 (murine GLP-1R cells). […] Compounds were diluted 1:1 in DMSO and 5 nL was transferred to the tissue-culture plate wells using an ECHO Acoustic Liquid Handler (Beckman Coulter).
(§5) Each dilution series was normalized to the adjacent high (100%) and low (0%) wells on the plate. Dose-response data were fitted to a curve using nonlinear regression analysis using the “log(agonist) vs response-variable slope” setting, where:
(§6) Y=Bottom+(Top−Bottom)/(1+10^((Log EC50−X)*HillSlope))
(§7) and the Hillslope was constrained to 1. Compound potency and efficacy were extracted from this regression analysis. […] For NanoBiT assays, a single time point during the 30-minute activity measurements was selected for maximum luminescence response. […]

[4] = biological target: T2, human GLP-1R; assay: β-arrestin-2 recruitment (NanoBiT), HEK293, human GLP-1R; assay type: cell-based; set-up: expressed in transfected cells; host or cells: HEK293 (stably or transiently transfected); details: HEK293, read-out: β-arrestin-2 % Emax
Method: as §1, §2, §3

[5] = biological target: T2, human GLP-1R; assay: Receptor internalization (Nano-Glo HiBiT), HEK293, human GLP-1R; assay type: cell-based; set-up: expressed in transfected cells
Method: Receptor internalization for human GLP-1R and GIPR was measured with Promega's Nano-Glo® HiBit extracellular detection system in HEK293 cells. Receptor internalization for human GLP-1R and GIPR was measured using the Promega Nano-Glo© HiBit extracellular detection system (Promega Corporation). HEK293 cells were transiently transfected with 1000:1 ratio of carrier plasmid (pcDNA3.1) and plasmids containing HiBiT-tagged human GLP-1R or human GIPR sequences (Promega Corporation). Cells were dissociated the following day using TrypLE express enzyme (ThermoFisher Scientific) and plated in 96-well plates at 80,000-100,000 cells per well. Forty-eight hours post-transfection, media was replaced with equal parts CO2 independent media (Gibco) and Nano-Glo extracellular buffer containing LgBiT protein (diluted 1:100), and Nano-Glo HiBiT extracellular substrate (diluted 1:50). After a 15-minute equilibration and background luminescence reading, test compounds were added and the luminescence was measured for 120 minutes at two-minute intervals using an EnVision Multimode Plate Reader (PerkinElmer).
as §7

[6] = biological target: T1, human GIPR; assay: cAMP accumulation (HitHunter), CHO-K1 cells expressing SNAP-human GIPR; assay type: cell-based; set-up: expressed in transfected cells
Method: as §4, §5, §6, §7

Question: Which Emax [1] does the source give for `CC[C@H](C)[C@H](NC(=O)[C@H](CC(C)C)NC(=O)[C@H](Cc1c[nH]c2ccccc12)NC(=O)[C@H](CCC(N)=O)NC(=O)[C@@H](NC(=O)[C@H](Cc1ccccc1)NC(=O)[C@H](C)NC(=O)[C@H](CCCCNC(=O)COCCOCCNC(=O)COCCOCCNC(=O)CC[C@H](NC(=O)CCCCCCCCCCCCCCCCCCC(=O)O)C(=O)O)NC(=O)[C@H](CCC(N)=O)NC(=O)[C@H](C)NC(=O)[C@@H](NC(=O)[C@H](CCCCN)NC(=O)[C@H](CC(=O)O)NC(=O)[C@H](CC(C)C)NC(=O)C(C)(C)NC(=O)[C@@H](NC(=O)[C@H](CO)NC(=O)[C@H](Cc1ccc(O)cc1)NC(=O)[C@H](CC(=O)O)NC(=O)[C@H](CO)NC(=O)[C@@H](NC(=O)[C@H](Cc1ccccc1)NC(=O)[C@@H](NC(=O)CNC(=O)[C@H](CCC(=O)O)NC(=O)CCNC(=O)C(C)(C)c1cc(F)cc(C#N)c1)[C@@H](C)O)[C@@H](C)O)[C@@H](C)CC)[C@@H](C)CC)C(C)C)C(=O)N[C@@H](C)C(=O)NCC(=O)NCC(=O)N1CCC[C@H]1C(=O)N[C@@H](CO)C(=O)N[C@@H](CO)C(=O)NCC(=O)N[C@@H](C)C(=O)N1CCC[C@H]1C(=O)N1CCC[C@H]1C(=O)N1CCC[C@H]1C(=O)N[C@@H](CO)C(N)=O` [CT-388] ({Isobutyryl(2-(3-CN-5-F-Ph))-βAla}-EGTFTSDYSI[Aib]LDKIAQK([AEEA-AEEA-γGlu-C20 diacid])AFVQWLIAGGPSSGAPPPS-NH2) here?
Answer: 28%

Question: And the Vd/F [2]?
Answer: 11.4 L

Question: And the Emax [3]?
Answer: 99%

Question: And the Emax [4]?
Answer: 4%

Question: And the Emax [5]?
Answer: 6%

Question: And the Emax [6]?
Answer: 92%

From patent US20260137758A1, “TREATMENT OF STEATOTIC LIVER DISEASE ASSOCIATED WITH METABOLIC DYSFUNCTION” (priority 2024, published 2026)
